{
  "source": "ChEMBL document CHEMBL1155316",
  "about": "“Benzo[d]imidazole inhibitors of Coactivator Associated Arginine Methyltransferase 1 (CARM1)--Hit to Lead studies” (Bioorg Med Chem Lett, 2009)",
  "key": {"[1]": {"target": "T1, Histone-arginine methyltransferase CARM1 (Homo sapiens, UniProt Q86X55)", "T1 sequence (Q86X55 whole entry)": "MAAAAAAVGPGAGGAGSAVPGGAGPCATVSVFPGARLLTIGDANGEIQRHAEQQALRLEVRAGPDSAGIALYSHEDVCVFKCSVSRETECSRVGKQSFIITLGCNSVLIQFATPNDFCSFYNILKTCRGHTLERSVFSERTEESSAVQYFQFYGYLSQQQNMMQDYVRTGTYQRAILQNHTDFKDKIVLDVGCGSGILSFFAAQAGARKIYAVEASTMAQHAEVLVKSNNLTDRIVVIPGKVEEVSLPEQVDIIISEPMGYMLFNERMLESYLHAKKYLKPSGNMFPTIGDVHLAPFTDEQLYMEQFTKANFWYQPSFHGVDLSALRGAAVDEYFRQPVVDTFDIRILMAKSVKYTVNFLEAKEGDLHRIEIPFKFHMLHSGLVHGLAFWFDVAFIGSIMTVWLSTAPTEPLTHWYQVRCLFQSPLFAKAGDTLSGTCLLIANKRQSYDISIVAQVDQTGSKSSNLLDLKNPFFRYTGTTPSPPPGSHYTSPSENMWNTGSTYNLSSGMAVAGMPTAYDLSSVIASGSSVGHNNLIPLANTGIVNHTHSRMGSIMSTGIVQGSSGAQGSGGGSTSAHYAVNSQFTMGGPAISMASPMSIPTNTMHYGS", "assay": "Inhibition of human CARM1 assessed as inhibition of histone3 methylation"}, "[2]": {"target": "Protein arginine N-methyltransferase 1 (Homo sapiens, UniProt Q99873)", "sequence (Q99873 whole entry)": "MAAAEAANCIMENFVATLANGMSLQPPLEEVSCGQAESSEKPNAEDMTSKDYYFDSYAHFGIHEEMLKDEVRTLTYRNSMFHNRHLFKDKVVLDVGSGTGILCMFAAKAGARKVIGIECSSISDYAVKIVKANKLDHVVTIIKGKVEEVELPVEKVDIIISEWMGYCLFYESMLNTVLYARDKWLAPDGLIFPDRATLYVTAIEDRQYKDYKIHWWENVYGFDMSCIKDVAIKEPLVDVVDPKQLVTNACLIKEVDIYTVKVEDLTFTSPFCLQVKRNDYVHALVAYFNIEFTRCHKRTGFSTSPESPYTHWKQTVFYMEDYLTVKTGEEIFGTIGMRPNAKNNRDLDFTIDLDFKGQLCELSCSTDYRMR", "assay": "Inhibition of PRMT1"}, "[3]": {"target": "Protein arginine N-methyltransferase 3 (Homo sapiens, UniProt O60678)", "sequence (O60678 whole entry)": "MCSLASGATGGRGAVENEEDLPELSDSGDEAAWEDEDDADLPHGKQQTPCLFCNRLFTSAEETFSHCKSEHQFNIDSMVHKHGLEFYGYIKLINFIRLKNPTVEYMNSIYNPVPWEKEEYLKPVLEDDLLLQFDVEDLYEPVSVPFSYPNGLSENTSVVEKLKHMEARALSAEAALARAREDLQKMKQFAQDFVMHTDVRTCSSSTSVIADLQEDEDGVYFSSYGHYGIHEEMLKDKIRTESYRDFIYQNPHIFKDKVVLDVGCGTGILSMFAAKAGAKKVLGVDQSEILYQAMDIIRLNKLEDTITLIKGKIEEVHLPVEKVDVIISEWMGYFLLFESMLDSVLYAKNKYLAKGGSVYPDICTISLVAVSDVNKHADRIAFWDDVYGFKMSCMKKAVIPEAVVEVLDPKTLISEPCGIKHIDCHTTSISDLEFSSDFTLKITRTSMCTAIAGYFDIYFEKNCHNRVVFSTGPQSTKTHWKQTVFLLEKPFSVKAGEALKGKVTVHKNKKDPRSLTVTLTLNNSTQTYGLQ", "assay": "Inhibition of PRMT3"}, "[4]": {"target": "T2, Histone-arginine methyltransferase CARM1 (Homo sapiens) (UniProt Q86X55)", "T2 sequence (whole entry)": "T1 sequence (Q86X55 whole entry)", "assay": "Inhibition of human CARM1 assessed as inhibition of HuR methylation"}, "[5]": {"target": "T2, Histone-arginine methyltransferase CARM1 (Homo sapiens)", "assay": "Inhibition of human CARM1 assessed as inhibition of PABP methylation"}},
  "note": "Calls of active or inactive are those of the source. The rule behind the calls is not given here.",
  "data": [
    {"smiles": "CN[C@@H](C)CN1CCC(c2cc(C)c3nc(-c4cccnc4OC)[nH]c3c2)CC1", "values": [
      {"measurement": "IC50", "setting": "[1]", "result": "> 30", "unit": "µM"}
    ]},
    {"smiles": "CNCCN1CCC(c2cc(C)c3nc(-c4c(OC)cccc4OC)[nH]c3c2)CC1", "values": [
      {"measurement": "IC50", "setting": "[2]", "result": "> 25", "unit": "µM"},
      {"measurement": "IC50", "setting": "[3]", "result": "> 25", "unit": "µM"}
    ]},
    {"smiles": "CNCCN1CCC(c2cc(C)c3[nH]c(-c4c(OC)cccc4OC)nc3c2)CC1", "values": [
      {"measurement": "Activity", "setting": "[4]", "result": "Active"},
      {"measurement": "Activity", "setting": "[5]", "result": "Active"}
    ]},
    {"smiles": "CN[C@H](C)CN1CCC(c2cc(C)c3nc(-c4cccnc4OC)[nH]c3c2)CC1", "values": [
      {"measurement": "IC50", "setting": "[1]", "result": "> 30", "unit": "µM"}
    ]},
    {"smiles": "C[C@H](N)C(=O)NCc1cccc(-n2nc(C(F)(F)F)cc2-c2nnc(-c3cccc4ncsc34)o2)c1", "values": [
      {"measurement": "IC50", "setting": "[1]", "result": 0.04, "unit": "µM"}
    ]}
  ]
}
